Measured values published in PubChem BioAssay (NCI).
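Test compounds were applied to cells in 96-well plates for 48 hours at 5 doses. GI50 is the concentration that inhibits growth by half. TGI is the concentration that stops growth completely.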

Key:
Experiment in all cases: growth of human tumour cells (NCI), 48 h
SNB-75 CNS = tested on: SNB-75 CNS
NCI-H23 lung = tested on: NCI-H23 lung
SW-620 colon = tested on: SW-620 colon
OVCAR-5 ovarian = tested on: OVCAR-5 ovarian
HOP-62 NSCLC = tested on: HOP-62 NSCLC
A549 NSCLC = tested on: A549 NSCLC
U251 CNS = tested on: U251 CNS
MOLT-4 leukemia = tested on: MOLT-4 leukemia
NCI-H460 lung = tested on: NCI-H460 lung
OVCAR-4 ovarian = tested on: OVCAR-4 ovarian
NCI/ADR-RES ovarian = tested on: NCI/ADR-RES ovarian
DU-145 prostate = tested on: DU-145 prostate
SK-MEL-28 melanoma = tested on: SK-MEL-28 melanoma
HS 578T breast = tested on: HS 578T breast
NCI-H226 lung = tested on: NCI-H226 lung
SK-MEL-5 melanoma = tested on: SK-MEL-5 melanoma
CCRF-CEM leukemia = tested on: CCRF-CEM leukemia
SK-MEL-2 melanoma = tested on: SK-MEL-2 melanoma
SNB-19 CNS = tested on: SNB-19 CNS
MCF7 breast = tested on: MCF7 breast
MDA-MB-468 breast = tested on: MDA-MB-468 breast
HOP-92 NSCLC = tested on: HOP-92 NSCLC
MDA-MB-231 breast = tested on: MDA-MB-231 breast
786-0 renal = tested on: 786-0 renal
HT29 colon = tested on: HT29 colon
RXF 393 renal = tested on: RXF 393 renal
LOX IMVI melanoma = tested on: LOX IMVI melanoma
EKVX NSCLC = tested on: EKVX NSCLC
OVCAR-8 ovarian = tested on: OVCAR-8 ovarian
UACC-257 melanoma = tested on: UACC-257 melanoma
SK-OV-3 ovarian = tested on: SK-OV-3 ovarian
UO-31 renal = tested on: UO-31 renal
UACC-62 melanoma = tested on: UACC-62 melanoma
BT-549 breast = tested on: BT-549 breast
KM12 colon = tested on: KM12 colon
K-562 leukemia = tested on: K-562 leukemia
SR leukemia = tested on: SR leukemia
M14 melanoma = tested on: M14 melanoma
IGROV1 ovarian = tested on: IGROV1 ovarian
TK-10 renal = tested on: TK-10 renal
NCI-H522 lung = tested on: NCI-H522 lung
HCT-116 colon = tested on: HCT-116 colon
SF-539 CNS = tested on: SF-539 CNS
HCT-15 colon = tested on: HCT-15 colon
SN12C renal = tested on: SN12C renal
RPMI-8226 leukemia = tested on: RPMI-8226 leukemia
ACHN renal = tested on: ACHN renal
SF-268 CNS = tested on: SF-268 CNS
A498 renal = tested on: A498 renal
SF-295 CNS = tested on: SF-295 CNS
MDA-MB-435 = tested on: MDA-MB-435
PC-3 prostate = tested on: PC-3 prostate
T-47D breast = tested on: T-47D breast
MALME-3M melanoma = tested on: MALME-3M melanoma
HL-60(TB) leukemia = tested on: HL-60(TB) leukemia
CAKI-1 renal = tested on: CAKI-1 renal
OVCAR-3 ovarian = tested on: OVCAR-3 ovarian
HCC-2998 colon = tested on: HCC-2998 colon
COLO 205 colon = tested on: COLO 205 colon

COc1ccc(CN2[C@@H](C(=O)NCc3ccc(C(=O)NO)cc3)Cc3c([nH]c4ccccc34)[C@@H]2C2CC2)cc1
GI50 (SNB-75 CNS): 1.13 µM | TGI (SNB-75 CNS): 5.68 µM | GI50 (NCI-H23 lung): 2.75 µM | TGI (NCI-H23 lung): 5.77 µM | GI50 (SW-620 colon): 2.26 µM | TGI (SW-620 colon): 8.03 µM | GI50 (OVCAR-5 ovarian): 1.87 µM | TGI (OVCAR-5 ovarian): 6.05 µM | GI50 (HOP-62 NSCLC): 3.48 µM | TGI (HOP-62 NSCLC): 8.58 µM | GI50 (A549 NSCLC): 3.54 µM | TGI (A549 NSCLC): 9.02 µM | GI50 (U251 CNS): 2.67 µM | TGI (U251 CNS): 6.78 µM | GI50 (MOLT-4 leukemia): 1.85 µM | TGI (MOLT-4 leukemia): > 19.8 µM | GI50 (NCI-H460 lung): 3.14 µM | TGI (NCI-H460 lung): 9.21 µM | GI50 (OVCAR-4 ovarian): 4.74 µM | TGI (OVCAR-4 ovarian): > 19.8 µM | GI50 (NCI/ADR-RES ovarian): 4.05 µM | TGI (NCI/ADR-RES ovarian): 13.8 µM | GI50 (DU-145 prostate): 4.38 µM | TGI (DU-145 prostate): > 19.8 µM | GI50 (SK-MEL-28 melanoma): 1.98 µM | TGI (SK-MEL-28 melanoma): 5.88 µM | GI50 (HS 578T breast): 1.85 µM | TGI (HS 578T breast): 14.4 µM | GI50 (NCI-H226 lung): 3.41 µM | TGI (NCI-H226 lung): 10.1 µM | GI50 (SK-MEL-5 melanoma): 2.6 µM | TGI (SK-MEL-5 melanoma): 5.25 µM | GI50 (CCRF-CEM leukemia): 0.996 µM | TGI (CCRF-CEM leukemia): > 19.8 µM | GI50 (SK-MEL-2 melanoma): 4.11 µM | TGI (SK-MEL-2 melanoma): 12 µM | GI50 (SNB-19 CNS): 2.89 µM | TGI (SNB-19 CNS): 6.8 µM | GI50 (MCF7 breast): 2.33 µM | TGI (MCF7 breast): 12 µM | GI50 (MDA-MB-468 breast): 1 µM | TGI (MDA-MB-468 breast): 4.34 µM | GI50 (HOP-92 NSCLC): 2.62 µM | TGI (HOP-92 NSCLC): 6.65 µM | GI50 (MDA-MB-231 breast): 2.43 µM | TGI (MDA-MB-231 breast): 7.52 µM | GI50 (786-0 renal): 3.98 µM | TGI (786-0 renal): 13 µM | GI50 (HT29 colon): 4.84 µM | TGI (HT29 colon): > 19.8 µM | GI50 (RXF 393 renal): 0.797 µM | TGI (RXF 393 renal): 4.09 µM | GI50 (LOX IMVI melanoma): 2.37 µM | TGI (LOX IMVI melanoma): 4.81 µM | GI50 (EKVX NSCLC): 3.2 µM | TGI (EKVX NSCLC): 10.9 µM | GI50 (OVCAR-8 ovarian): 2.56 µM | TGI (OVCAR-8 ovarian): 9.71 µM | GI50 (UACC-257 melanoma): 2.39 µM | TGI (UACC-257 melanoma): 9.74 µM | GI50 (SK-OV-3 ovarian): 2.87 µM | TGI (SK-OV-3 ovarian): 6.97 µM | GI50 (UO-31 renal): 3 µM | TGI (UO-31 renal): 5.72 µM | GI50 (UACC-62 melanoma): 1.55 µM | TGI (UACC-62 melanoma): 4.6 µM | GI50 (BT-549 breast): 4.99 µM | TGI (BT-549 breast): 9.96 µM | GI50 (KM12 colon): 3.51 µM | TGI (KM12 colon): 16.7 µM | GI50 (K-562 leukemia): 1.67 µM | TGI (K-562 leukemia): > 19.8 µM | GI50 (SR leukemia): > 19.8 µM | TGI (SR leukemia): > 19.8 µM | GI50 (M14 melanoma): 4.07 µM | TGI (M14 melanoma): > 19.8 µM | GI50 (IGROV1 ovarian): 2.6 µM | TGI (IGROV1 ovarian): 5.78 µM | GI50 (TK-10 renal): 3.17 µM | TGI (TK-10 renal): 10.1 µM | GI50 (NCI-H522 lung): 0.964 µM | TGI (NCI-H522 lung): 5.06 µM | GI50 (HCT-116 colon): 2.08 µM | TGI (HCT-116 colon): > 19.8 µM | GI50 (SF-539 CNS): 2.48 µM | TGI (SF-539 CNS): 5.71 µM | GI50 (HCT-15 colon): 3.75 µM | TGI (HCT-15 colon): 10.5 µM | GI50 (SN12C renal): 3.86 µM | TGI (SN12C renal): 13.4 µM | GI50 (RPMI-8226 leukemia): 2.92 µM | TGI (RPMI-8226 leukemia): > 19.8 µM | GI50 (ACHN renal): 3.52 µM | TGI (ACHN renal): 9.33 µM | GI50 (SF-268 CNS): 4.4 µM | TGI (SF-268 CNS): 13 µM | GI50 (A498 renal): 2.77 µM | TGI (A498 renal): 7.99 µM | GI50 (SF-295 CNS): 2.92 µM | TGI (SF-295 CNS): 6.05 µM | GI50 (MDA-MB-435): 0.638 µM | TGI (MDA-MB-435): 2.67 µM | GI50 (PC-3 prostate): 3.12 µM | TGI (PC-3 prostate): > 19.8 µM | GI50 (T-47D breast): 3.82 µM | TGI (T-47D breast): 12.6 µM | GI50 (MALME-3M melanoma): 0.847 µM | TGI (MALME-3M melanoma): 4.17 µM | GI50 (HL-60(TB) leukemia): 2.73 µM | TGI (HL-60(TB) leukemia): > 19.8 µM | GI50 (CAKI-1 renal): 2.39 µM | TGI (CAKI-1 renal): 6.73 µM | GI50 (OVCAR-3 ovarian): 3.41 µM | TGI (OVCAR-3 ovarian): 14.7 µM | GI50 (HCC-2998 colon): 2.6 µM | TGI (HCC-2998 colon): 5.59 µM | GI50 (COLO 205 colon): 3.47 µM | TGI (COLO 205 colon): 8.03 µM
